Data reported in ChEMBL document CHEMBL4368923 (J Med Chem, 2019).
pEC50, pIC50: −log10 of the molar value.

Key:
[1] = system: Human immunodeficiency virus 1; assay: Antiviral activity against HIV1 3B infected in human MT4 cells assessed as inhibition of virus-induced cytotoxicity after 5 days by MTT assay; format: functional, organism-based; details: Human immunodeficiency virus 1, 3B, MT4, 120 h
[2] = system: Human immunodeficiency virus 1; assay: Antiviral activity against HIV1 RES056 harboring reverse transcriptase K103N/Y181C double mutant infected in human MT4 cells assessed as inhibition of virus-induced cytotoxicity after 5 days by MTT assay; format: functional, organism-based; details: Human immunodeficiency virus 1, RES056, MT4, 120 h
[3] = Cytotoxicity against human MT4 cells assessed as reduction in cell viability after 5 days by MTT assay; format: cell-based
[4] = system: Human immunodeficiency virus 1; assay: Antiviral activity against HIV1 harboring reverse transcriptase E138K mutant infected in human MT4 cells assessed as inhibition of virus-induced cytotoxicity after 5 days by MTT assay; format: functional, organism-based; details: Human immunodeficiency virus 1, MT4, 120 h
[5] = system: Human immunodeficiency virus 1; assay: Antiviral activity against HIV1 harboring reverse transcriptase L100I mutant infected in human MT4 cells assessed as inhibition of virus-induced cytotoxicity after 5 days by MTT assay; format: functional, organism-based; details: Human immunodeficiency virus 1, MT4, 120 h
[6] = system: Human immunodeficiency virus 1; assay: Antiviral activity against HIV1 harboring reverse transcriptase K103N mutant infected in human MT4 cells assessed as inhibition of virus-induced cytotoxicity after 5 days by MTT assay; format: functional, organism-based; details: Human immunodeficiency virus 1, MT4, 120 h
[7] = system: Human immunodeficiency virus 1; assay: Antiviral activity against HIV1 harboring reverse transcriptase Y181C mutant infected in human MT4 cells assessed as inhibition of virus-induced cytotoxicity after 5 days by MTT assay; format: functional, organism-based; details: Human immunodeficiency virus 1, MT4, 120 h
[8] = system: Human immunodeficiency virus 1; assay: Antiviral activity against HIV1 harboring reverse transcriptase Y188L mutant infected in human MT4 cells assessed as inhibition of virus-induced cytotoxicity after 5 days by MTT assay; format: functional, organism-based; details: Human immunodeficiency virus 1, MT4, 120 h
[9] = system: Human immunodeficiency virus 1; assay: Antiviral activity against HIV1 harboring reverse transcriptase F227L/V106A double mutant infected in human MT4 cells assessed as inhibition of virus-induced cytotoxicity after 5 days by MTT assay; format: functional, organism-based; details: Human immunodeficiency virus 1, MT4, 120 h
[10] = molecular target: Human immunodeficiency virus type 1 reverse transcriptase (Human immunodeficiency virus 1, UniProt Q72547); assay: Inhibition of HIV1 reverse transcriptase p66/p51 using poly(rA)/oligo(dT)16 as template/primer measured after 40 mins by pico-green based spectrofluorometric analysis
[11] = Acute toxicity in Kunming mouse assessed as mortality at 2000 mg/kg, ig measured every day for 1 week; format: organism-based; details: in vivo, po, 168 h
[12] = Acute toxicity in Kunming mouse assessed as lethargy at 2000 mg/kg, ig measured every day for 1 week; format: organism-based; details: in vivo, po, 168 h
[13] = Acute toxicity in Kunming mouse assessed as clonic convulsion at 2000 mg/kg, ig measured every day for 1 week; format: organism-based; details: in vivo, po, 168 h
[14] = Acute toxicity in Kunming mouse assessed as anorexia at 2000 mg/kg, ig measured every day for 1 week; format: organism-based; details: in vivo, po, 168 h
[15] = Acute toxicity in Kunming mouse assessed as ruffled fur at 2000 mg/kg, ig measured every day for 1 week; format: organism-based; details: in vivo, po, 168 h
[16] = Acute toxicity in Kunming mouse assessed as effect on body weight at 2000 mg/kg, ig measured every day for 1 week; format: organism-based; details: in vivo, po, 168 h
[17] = Subacute toxicity in Kunming mouse assessed as mortality at 50 mg/kg, po dosed once every other day for 14 days; format: organism-based; details: in vivo, 336 h
[18] = Subacute toxicity in Kunming mouse assessed as lethargy at 50 mg/kg, po dosed once every other day for 14 days; format: organism-based; details: in vivo, 336 h
[19] = Subacute toxicity in Kunming mouse assessed as clonic convulsion at 50 mg/kg, po dosed once every other day for 14 days; format: organism-based; details: in vivo, 336 h
[20] = Subacute toxicity in Kunming mouse assessed as anorexia at 50 mg/kg, po dosed once every other day for 14 days; format: organism-based; details: in vivo, 336 h
[21] = Subacute toxicity in Kunming mouse assessed as ruffled fur at 50 mg/kg, po dosed once every other day for 14 days; format: organism-based; details: in vivo, 336 h
[22] = Subacute toxicity in Kunming mouse assessed as effect on body weight at 50 mg/kg, po dosed once every other day for 14 days; format: organism-based; details: in vivo, 336 h
[23] = Subacute toxicity in Kunming mouse assessed as pathological damage to heart at 50 mg/kg, po dosed once every other day for 14 days by hematoxylin and eosin staining based assay; format: organism-based; details: in vivo, 336 h
[24] = Subacute toxicity in Kunming mouse assessed as pathological damage to liver at 50 mg/kg, po dosed once every other day for 14 days by hematoxylin and eosin staining based assay; format: organism-based; details: in vivo, 336 h
[25] = Subacute toxicity in Kunming mouse assessed as pathological damage to spleen at 50 mg/kg, po dosed once every other day for 14 days by hematoxylin and eosin staining based assay; format: organism-based; details: in vivo, 336 h
[26] = Subacute toxicity in Kunming mouse assessed as pathological damage to lungs at 50 mg/kg, po dosed once every other day for 14 days by hematoxylin and eosin staining based assay; format: organism-based; details: in vivo, 336 h
[27] = Subacute toxicity in Kunming mouse assessed as pathological damage to kidneys at 50 mg/kg, po dosed once every other day for 14 days by hematoxylin and eosin staining based assay; format: organism-based; details: in vivo, 336 h
[28] = Acute toxicity in Kunming mouse assessed as effect on animal growth at 2000 mg/kg, ig measured every day for 1 week; format: organism-based; details: in vivo, po, 168 h

In the case of `Cc1cc(/C=C/C#N)cc(C)c1Oc1ccnc(Nc2ccc(CN3CCN(S(C)(=O)=O)CC3)cc2)n1`, the pEC50 ([1]; read-out: EC50) was 8.46, the EC50 ([1]; read-out: pEC50 (converted)) was 3.47 nM and the pEC50 [2] was 6.10. For the same molecule, the CC50 at 120 h [3] was ≥ 173000 nM, the pEC50 [4] was 8.12 and the pEC50 [5] was 8.00. For the same molecule, the pEC50 [6] was 8.44, the pEC50 [7] was 7.60 and the pEC50 [8] was 5.79. The pEC50 [9] was 6.96, the pIC50 [10] was 7.17 and the Activity [11] was “Non-Toxic”. For the same molecule, the Activity [12] was “Non-Toxic”, the Activity [13] was “Non-Toxic” and the Activity [14] was “Non-Toxic”. For the same molecule, the Activity [15] was “Non-Toxic”, the Activity [16] was “Non-Toxic” and the Activity [17] was “Non-Toxic”. For the same molecule, the Activity [18] was “Non-Toxic”, the Activity [19] was “Non-Toxic” and the Activity [20] was “Non-Toxic”. For the same molecule, the Activity [21] was “Non-Toxic”, the Activity [22] was “Non-Toxic” and the Activity [23] was “Non-Toxic”. For the same molecule, the Activity [24] was “Non-Toxic”, the Activity [25] was “Non-Toxic” and the Activity [26] was “Non-Toxic”. The Activity [27] was “Non-Toxic” and the Activity [28] was “Non-Toxic”.
